According to patent US20260130933A1, “PHARMACEUTICAL COMPOSITION FOR PREVENTION OR TREATMENT OF NEPHROPATHY AND/OR DIABETES MELLITUS, COMPRISING ENAVOGLIFLOZIN” (DAEWOONG PHARMACEUTICAL CO., LTD., priority 2022, published 2026):

Assay: Example 2: phase 3 trial, enavogliflozin 0.3 mg vs dapagliflozin 10 mg once a day for 24 weeks added to metformin in patients with type 2 diabetes (same efficacy, exploratory and safety endpoints)
Assay type: in vivo, human
Procedure: Subjects who met the inclusion/exclusion criteria were administered a placebo of the clinical trial drug under single-blind (subject blinding) conditions during a 2-week run-in period while continuing to receive metformin. […] The randomized subjects were administered two tablets of the clinical trial drug for each administration group once a day, and then visited the institution at weeks 6, 12, 18, and 24 during the 24-week administration period to conduct efficacy and safety evaluations.
• 1. Change in HbA1c at week 24 after administration of clinical trial drug compared to Visit 2 (randomization)
• 1. Change in HbA1c at each time point of weeks 6, 12, and 18 after administration of clinical trial drug compared to Visit 2 (randomization) • 2. Change in FPG at each time point of weeks 6, 12, 18, and 24 after administration of clinical trial drug compared to Visit 2 (randomization) • 3. Proportion of subjects achieving HbA1c<7% at each time point of weeks 6, 12, 18, and 24 after administration of clinical trial drug • 4. Proportion of subjects achieving HbA1c<6.5% at each time point of weeks 6, 12, 18, and 24 after administration of clinical trial drug • 5. Proportion of subjects achieving therapeutic response (HbA1c change (HbA1c at Visit 2-HbA1c at each evaluation time point)>0.5% or HbA1c<7% at each evaluation time point compared to Visit 2 (randomization)) at each time point of weeks 6, 12, 18 and 24 after administration of clinical trial drug
• 1. Change in fasting c-peptide at each time point of weeks 6, 12, 18, and 24 after administration of clinical trial drug compared to Visit 2 (randomization) • 2. Change in body weight at each time point of weeks 6, 12, 18, and 24 after administration of clinical trial drug compared to Visit 2 (randomization) • 3. Change in fasting lipid concentration (total cholesterol, LDL-C, HDL-C, and triglycerides) at each time point of weeks 6, 12, 18, and 24 after administration of clinical trial drug compared to Visit 2 (randomization) • 4. Changes in systolic or diastolic blood pressure at each time point of weeks 6, 12, 18, and 24 after administration of clinical trial drug compared to Visit 2 (randomization) • 5. Changes in β-cell function and insulin resistance measured by HOMA-β and HOMA-IR at each time point of weeks 6, 12, 18, and 24 after administration of clinical trial drug compared to Visit 2 (randomization) • 6. Changes in renal function-related indicators (UACR, UGCR) measured by UACR at each time point of weeks 6, 12, 18, and 24 after administration of clinical trial drug compared to Visit 2 (randomization) • 7. Changes in obesity-related indicators (adiponectin, leptin) at each time point of weeks 6, 12, 18, and 24 after administration of clinical trial drug compared to Visit 2 (randomization)

[1] = week 6, modified per-protocol set 1, enavogliflozin 0.3 mg, dapagliflozin 10 mg
[2] = week 6, per-protocol set, enavogliflozin 0.3 mg, dapagliflozin 10 mg
[3] = week 12, modified per-protocol set 1, enavogliflozin 0.3 mg, dapagliflozin 10 mg

In the case of `CCOc1ccc(Cc2cc([C@@H]3O[C@H](CO)[C@@H](O)[C@H](O)[C@H]3O)ccc2Cl)cc1` [Dapagliflozin, reference compound], the “HOMA-IR, Median” value (Week 24, PPS) was 1.82, the “HOMA-β change from baseline, ANCOVA LS mean (SE)” value (Week 24, PPS) was 11.93 and the “HOMA-β change from baseline, Mean (SD)” value (Week 24, PPS) was 12.23. For the same compound, the “HOMA-β change from baseline, Median” value (Week 24, PPS) was 5.30, the “HOMA-β, Mean (SD)” value (Week 24, PPS) was 56.67 and the “HOMA-β, Median” value (Week 24, PPS) was 46.75. For the same compound, the “Leptin change from baseline, ANCOVA LS mean (SE)” value (Week 24, PPS) was -1.28 ng/mL, the “Leptin change from baseline, Mean (SD)” value (Week 24, PPS) was -1.31 ng/mL and the “Leptin change from baseline, Median” value (Week 24, PPS) was -1.17 ng/mL. For the same compound, the “Leptin, Mean (SD)” value (Week 24, PPS) was 10.37 ng/mL, the “Leptin, Median” value (Week 24, PPS) was 6.69 ng/mL and the “UACR change from baseline, ANCOVA LS mean (SE)” value (Week 24, PPS) was -17.37 g/kg. For the same compound, the “UACR change from baseline, Mean (SD)” value (Week 24, PPS) was -25760 mg/kg, the “UACR change from baseline, Median” value (Week 24, PPS) was -1.70 g/kg and the “UACR, Mean (SD)” value (Week 24, PPS) was 31370 mg/kg. For the same compound, the “UACR, Median” value (Week 24, PPS) was 11.10 g/kg, the “UGCR change from baseline, ANCOVA LS mean (SE)” value (Week 24, PPS) was 44.94 mg/mg and the “UGCR change from baseline, Mean (SD)” value (Week 24, PPS) was 43.01 mg/mg. The “UGCR change from baseline, Median” value (Week 24, PPS) was 42.01 mg/mg, the “UGCR, Mean (SD)” value (Week 24, PPS) was 45.27 mg/mg and the “UGCR, Median” value (Week 24, PPS) was 43.81 mg/mg. For the same compound, the “HDL-C change from baseline, ANCOVA LS mean (SE)” value (Week 24, mPPS1) was 3.19(0.66) mg/dL, the “HDL-C change from baseline, Mean (SD)” value (Week 24, mPPS1) was 3.55(5.30) mg/dL and the “HDL-C change from baseline, Median” value (Week 24, mPPS1) was 3.00 mg/dL. The “HDL-C, Mean (SD)” value (Week 24, mPPS1) was 50.45(9.72) mg/dL, the “HDL-C, Median” value (Week 24, mPPS1) was 50.00 mg/dL and the “LDL-C change from baseline, ANCOVA LS mean (SE)” value (Week 24, mPPS1) was 0.93(1.98) mg/dL. For the same compound, the “LDL-C change from baseline, Mean (SD)” value (Week 24, mPPS1) was 2.68(20.64) mg/dL, the “LDL-C change from baseline, Median” value (Week 24, mPPS1) was 2.00 mg/dL and the “LDL-C, Mean (SD)” value (Week 24, mPPS1) was 78.84(25.81) mg/dL. For the same compound, the “LDL-C, Median” value (Week 24, mPPS1) was 76.00 mg/dL, the “Triglycerides change from baseline, ANCOVA LS mean (SE)” value (Week 24, mPPS1) was −6.70(5.28) mg/dL and the “Triglycerides change from baseline, Mean (SD)” value (Week 24, mPPS1) was −10.64(52.51) mg/dL. The “Triglycerides change from baseline, Median” value (Week 24, mPPS1) was -7.00 mg/dL, the “Triglycerides, Mean (SD)” value (Week 24, mPPS1) was 122.28(58.14) mg/dL and the “Triglycerides, Median” value (Week 24, mPPS1) was 110.00 mg/dL. The “Diastolic blood pressure change from baseline, ANCOVA LS mean (SE)” value (Week 24, mPPS2) was −4.26 mmHg, the “Diastolic blood pressure change from baseline, Mean (SD)” value (Week 24, mPPS2) was −3.87 mmHg and the “Diastolic blood pressure change from baseline, Median” value (Week 24, mPPS2) was −4.00 mmHg. The “Diastolic blood pressure, Mean (SD)” value (Week 24, mPPS2) was 72.05 mmHg, the “Diastolic blood pressure, Median” value (Week 24, mPPS2) was 71.00 mmHg and the “Systolic blood pressure change from baseline, ANCOVA LS mean (SE)” value (Week 24, mPPS2) was −6.57(1.04) mmHg. The “Systolic blood pressure change from baseline, Mean (SD)” value (Week 24, mPPS2) was −6.03(12.13) mmHg, the “Systolic blood pressure change from baseline, Median” value (Week 24, mPPS2) was −7.00 mmHg and the “Systolic blood pressure, Mean (SD)” value (Week 24, mPPS2) was 121.40(11.90) mmHg. The “Systolic blood pressure, Median” value (Week 24, mPPS2) was 122.00 mmHg, the “FPG change from baseline, LS mean (SE)” value (week 6) was −23.81(2.23) mg/dL and the “HOMA-IR change from baseline, LS mean (SE)” value (week 6) was −1.31(0.15). For the same compound, the “HOMA-β change from baseline, LS mean (SE)” value (week 6) was −1.79(5.59), the “HbA1c change from baseline, LS mean (SE)” value (week 6) was −0.63(0.04) % p and the “LDL-C change from baseline, LS mean (SE)” value (week 6) was 4.20(1.95) mg/dL. For the same compound, the “Subjects achieving HbA1c target of <7%” value (week 6) was “(51.69) %”, the “Subjects achieving HbA1c<6.5%” value (week 6) was 14.61% and the “Subjects achieving therapeutic response (HbA1c change >0.5% or HbA1c<7%)” value (week 6) was 79.78%. For the same compound, the “UACR change from baseline, LS mean (SE)” value (week 6) was 8.13(10.88) g/kg, the “UGCR change from baseline, LS mean (SE)” value (week 6) was 50.10(2.80) mg/mg and the “diastolic blood pressure change from baseline, LS mean (SE)” value (week 6) was −1.47(0.72) mmHg. The “fasting c-peptide change from baseline, LS mean (SE)” value (week 6) was −0.07(0.02) ng/ml, the “leptin change from baseline, LS mean (SE)” value (week 6) was −1.62(0.47) ng/mL and the “Subjects achieving HbA1c target of <7%” value (week 6, listed as dapagliflozin) was 51.69%. The “Change from baseline in Total cholesterol, ANCOVA LS mean (SE)” value [1] was 6.87(2.27) mg/dL, the “Change from baseline in Total cholesterol, Mean (SD)” value [1] was 7.71(22.44) mg/dL and the “Change from baseline in total cholesterol, Median” value [1] was 7.00 mg/dL. The “fasting Total cholesterol, Mean (SD)” value [1] was 145.62(31.91) mg/dL, the “fasting Total cholesterol, Median” value [1] was 145.50 mg/dL and the “Change from baseline in FPG, ANCOVA LS mean (SE)” value [2] was -23.81 mg/dL. The “Change from baseline in FPG, Mean (SD)” value [2] was -24.90 mg/dL, the “Change from baseline in FPG, Median” value [2] was -24.00 mg/dL and the “Change from baseline in HbA1c, ANCOVA LS mean (SE)” value [2] was −0.63 % p. The “Change from baseline in HbA1c, Mean (SD)” value [2] was −0.58 % p, the “Change from baseline in HbA1c, Median” value [2] was −0.59 % p and the “Change from baseline in body weight, ANCOVA LS mean (SE)” value [2] was −1.61(0.21) kg. For the same compound, the “Change from baseline in body weight, Mean (SD)” value [2] was −1.60(1.25) kg, the “Change from baseline in body weight, Median” value [2] was -1.50 kg and the “Change from baseline in fasting c-peptide, ANCOVA LS mean (SE)” value [2] was −0.07(0.02) ng/mL. For the same compound, the “Change from baseline in fasting c-peptide, Mean (SD)” value [2] was −0.07(0.18) ng/mL, the “Change from baseline in fasting c-peptide, Median” value [2] was -0.07 ng/mL and the “FPG, Mean (SD)” value [2] was 124.37 mg/dL. The “FPG, Median” value [2] was 122.00 mg/dL, the “HbA1c, Mean (SD)” value [2] was 7.10% and the “HbA1c, Median” value [2] was 6.98%. For the same compound, the “Subjects achieving HbA1c target of <6.5%, (%)” value [2] was “(14.61) %”, the “Subjects achieving therapeutic glycemic response, (%)” value [2] was “(79.78) %” and the “body weight, Mean (SD)” value [2] was 68.88(11.86) kg. The “body weight, Median” value [2] was 66.90 kg, the “fasting c-peptide, Mean (SD)” value [2] was 0.66(0.20) ng/mL and the “fasting c-peptide, Median” value [2] was 0.63 ng/mL. The “FPG change from baseline, LS mean (SE)” value (week 12) was −30.11(2.03) mg/dL, the “HOMA-IR change from baseline, LS mean (SE)” value (week 12) was −1.60(0.17) and the “HOMA-β change from baseline, LS mean (SE)” value (week 12) was 8.75(3.15). The “HbA1c change from baseline, LS mean (SE)” value (week 12) was −0.79(0.05) % p, the “LDL-C change from baseline, LS mean (SE)” value (week 12) was 0.56(1.73) mg/dL and the “Subjects achieving HbA1c target of <7%” value (week 12) was “(63.64) %”. For the same compound, the “Subjects achieving HbA1c<6.5%” value (week 12) was 26.14%, the “Subjects achieving therapeutic response (HbA1c change >0.5% or HbA1c<7%)” value (week 12) was 79.55% and the “UACR change from baseline, LS mean (SE)” value (week 12) was −3.38(7.57) g/kg. The “UGCR change from baseline, LS mean (SE)” value (week 12) was 45.14(2.66) mg/mg, the “diastolic blood pressure change from baseline, LS mean (SE)” value (week 12) was −4.35(0.81) mmHg and the “fasting c-peptide change from baseline, LS mean (SE)” value (week 12) was −0.09(0.02) ng/ml. The “leptin change from baseline, LS mean (SE)” value (week 12) was −2.70(0.51) ng/mL, the “Subjects achieving HbA1c target of <7%” value (week 12, listed as dapagliflozin) was 63.64% and the “Change from baseline in Total cholesterol, ANCOVA LS mean (SE)” value [3] was 4.25(2.04) mg/dL. For the same compound, the “Change from baseline in Total cholesterol, Mean (SD)” value [3] was 5.47(18.88) mg/dL and the “Change from baseline in total cholesterol, Median” value [3] was 5.00 mg/dL.
